According to PMC10487658, “Identification and Characterization of RK22, a Novel Antimicrobial Peptide from Hirudinaria manillensis against Methicillin Resistant Staphylococcus aureus” (International Journal of Molecular Sciences, 2023):
No end group written: not given here.

Key:
P. aeruginosa, ATCC9027 = assay type: cell-based, Pseudomonas aeruginosa; settings: P. aeruginosa ATCC9027 in Table 3; RPMI 1640, 37 °C, 12–16 h, absorbance at 600 nm
E. coli, ATCC25922 = assay type: cell-based, Escherichia coli; settings: E. coli ATCC25922; RPMI 1640, 37 °C, 12–16 h, absorbance at 600 nm
HEK293T cells = assay: Cytotoxicity assay (CCK8); assay type: cell-based; settings: up to 400 μg/mL, 24 h, CCK8, absorbance 450 nm, 3 independent experiments
Method: In the cytotoxicity assay, HEK293T cells were cultured with Dulbecco’s Modified Eagle Medium (DMEM) (Corning, New York, NY, USA) consisting of 10% fetal bovine serum (FBS, Corning, New York, NY, USA) and 1% penicillin-streptomycin liquid (Solarbio, Beijing, China). After digestion using trypsin (Gibco, New York, NY, USA), the cell suspension (100 μL, 1 × 10^5 cells/mL, […]) was inoculated into each well of a 96-well plate. Once the cells were completely adherent, the supernatant was discarded, and fresh medium with or without 100 μL of RK22 (final concentration 6.25–400 μg/mL) was added to the 96-well plates. […] The plate was then incubated at 37 °C for an additional 1–4 h, with absorbance then measured at 450 nm. […]
Figure S1. […] After incubation for 60 min at 37°C, cells were centrifuged (3,500 rpm, 5 min) and the absorbance of the supernatant was measured at 540 nm. The value for “zero hemolysis” was determined using sterile saline (negative control, NC), while 100% hemolysis was established using 1% (v/v) Triton X-100 (PC: positive control). Hemolysis of testing sample was calculated as the percentage of Triton X-100-induced hemolysis. […] Cell viability was determined by adding 10 μl CCK8 in to the cells and incubated for 1-4 h. The absorbance at 450 nm of the solution was measured with a microplate reader. […]

washed platelets = assay: Platelet activity assay, flow cytometry; assay type: cell-based; settings: mouse washed platelets, 20, 10, 5, 2.5 μg/mL, 10 min, P-selectin
Method: Platelets were isolated from the mice as described in a previous study with minor modifications. The effect of RK22 and LL-37 on platelet activity was detected by flow cytometry. Mouse blood was mixed with Tyrode’s buffer A (137 mM NaCl, 2 mM KCl, 0.3 mM NaH2PO4, 12 mM NaHCO3, 5.5 mM glucose, 0.35% BSA, 1 mM MgCl2, and 0.2 mM EDTA, pH 6.5) and centrifuged (150× g, 10 min, room temperature) to obtain platelet-rich plasma (PRP), which was then pelleted (400× g, 5 min, room temperature), washed with Tyrode’s buffer A, and finally resuspended in Tyrode’s buffer B (137 mM NaCl, 2 mM KCl, 0.3 mM NaH2PO4, 12 mM NaHCO3, 5.5 mM glucose, 0.35% BSA and 2 mM CaCl2, pH 7.4). Antibodies against P-selectin (Biolegend, San Diego, CA, USA) were added to the platelets, followed by incubation for 10 min at room temperature. Samples (20, 10, 5, and 2.5 μg/mL) or normal saline were added, respectively, and analyzed by flow cytometry (BD, LSRFortessa^TM, Franklin Lakes, NJ, USA).

In the case of RKYKEKKDKSQNKKKKRKCMIL [RK22], the MIC (P. aeruginosa, ATCC9027) is reported as over 100 µg/mL, the MIC (E. coli, ATCC25922) is reported as 25 µg/mL and the cytotoxicity (HEK293T cells) is reported as “did not demonstrate any noticeable cytotoxic effects”. The platelet activation (washed platelets) was “did not exert any such effects”.
